Data taken from patent US20190375708A1 (VenatoRx Pharmaceuticals, Inc., priority 2018, published 2019).

Experiments:
[1] = tested on: HBV replication in HepAD38 cells; test: Anti-HBV replication assay in HepAD38 cells (QPCR of extracellular HBV DNA); type: cell-based, HBV (genotype D, serotype ayw); conditions: Hepatitis B virus, 168 h, 7 days incubation, extracellular HBV DNA by QPCR, read-out: Anti-HBV EC50
Summary of the method: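 Tet-off HepAD38, 7-day compound exposure ([…], 1 log10 steps, DMSO vehicle), 37 °C. Extracellular HBV DNA by QPCR, copies/mL via standard curve, % inhibition vs vehicle, EC50 by 4-parameter regression. Entecavir as positive control.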

[2] = In vitro cytotoxicity assay (MTT cell viability) in HepG2 cells; type: cell-based, human; conditions: human
Summary of the method: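 Viability measured by MTT conversion, absorbance at 492 nm, as percent of vehicle-treated wells. Compounds spanned 30 μM to 1.0 nM in half-log steps over a 7-day exposure of parental HepG2 cells; CC50 derived by 4-parameter curve fit.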

Row | Structure (SMILES) | EC50 [1] | CC50 at 7 days [2]
1 | Cc1c(C(=O)Nc2ccc(F)c(F)c2)c(C)n(C)c1C(=O)C(=O)NC1(C(N)=O)CCCC1 [Example 147, 5-(2-((1-carbamoylcyclopentyl)amino)-2-oxoacetyl)-N-(3,4-difluorophenyl)-1,2,4-trimethyl-1H-pyrrole-3-carboxamide] | < 50 nM | > 30000 nM
2 | Cc1c(C(=O)Nc2ccc(F)c(F)c2)c(C)n(C)c1C(=O)C(=O)NC(C)(C)CO [Example 148, N-(3,4-difluorophenyl)-5-(2-((1-hydroxy-2-methylpropan-2-yl)amino)-2-oxoacetyl)-1,2,4-trimethyl-1H-pyrrole-3-carboxamide] | < 50 nM | > 30000 nM
3 | Cc1cc(NC(=O)c2c(C)c(C(=O)C(=O)N[C@@H]3CCOC[C@H]3O)n(C)c2C)ccc1F [Example 149, N-(4-fluoro-3-methylphenyl)-5-(2-(((3S,4R)-3-hydroxytetrahydro-2H-pyran-4-yl)amino)-2-oxoacetyl)-1,2,4-trimethyl-1H-pyrrole-3-carboxamide] | < 50 nM | > 30000 nM
4 | Cc1cc(NC(=O)c2c(C)c(C(=O)C(=O)NCC3(O)CCOCC3)n(C)c2C)ccc1F [Example 150, N-(4-fluoro-3-methylphenyl)-5-(2-(((4-hydroxytetrahydro-2H-pyran-4-yl)methyl)amino)-2-oxoacetyl)-1,2,4-trimethyl-1H-pyrrole-3-carboxamide] | < 50 nM | > 30000 nM
5 | Cc1cc(NC(=O)c2c(C)c(C(=O)C(=O)N[C@@H]3CC[C@H](O)[C@H]3O)n(C)c2C)ccc1F [Example 151, 5-(2-(((1R,2S,3S)-2,3-dihydroxycyclopentyl)amino)-2-oxoacetyl)-N-(4-fluoro-3-methylphenyl)-1,2,4-trimethyl-1H-pyrrole-3-carboxamide] | < 50 nM | > 30000 nM
6 | Cc1cc(NC(=O)c2c(C)c(C(=O)C(=O)N[C@@H]3CC[C@H](O)[C@@H]3O)n(C)c2C)ccc1F [Example 152, 5-(2-(((1R,2R,3S)-2,3-dihydroxycyclopentyl)amino)-2-oxoacetyl)-N-(4-fluoro-3-methylphenyl)-1,2,4-trimethyl-1H-pyrrole-3-carboxamide] | < 50 nM | > 30000 nM
7 | Cc1cc(NC(=O)c2c(C)c(C(=O)C(=O)NC3(c4noc(C(F)F)n4)CCC3)n(C)c2C)ccc1F [Example 153, 5-(2-((1-(5-(difluoromethyl)-1,2,4-oxadiazol-3-yl)cyclobutyl)amino)-2-oxoacetyl)-N-(4-fluoro-3-methylphenyl)-1,2,4-trimethyl-1H-pyrrole-3-carboxamide] | < 50 nM | 5000 to 30000 nM
8 | Cc1cc(NC(=O)c2c(C)c(C(=O)C(=O)NC(C)(C)c3noc(CN(C)C)n3)n(C)c2C)ccc1F [Example 154, 5-(2-((2-(5-((dimethylamino)methyl)-1,2,4-oxadiazol-3-yl)propan-2-yl)amino)-2-oxoacetyl)-N-(4-fluoro-3-methylphenyl)-1,2,4-trimethyl-1H-pyrrole-3-carboxamide] | < 50 nM | > 30000 nM
9 | Cc1noc(C2(NC(=O)C(=O)c3c(C)c(C(=O)Nc4ccc(F)c(C)c4)c(C)n3C)CC2)n1 [Example 155, N-(4-fluoro-3-methylphenyl)-1,2,4-trimethyl-5-(2-((1-(3-methyl-1,2,4-oxxadiazol-5-yl)cyclopropyl)amino)-2-oxoacetyl)-1H-pyrrole-3-carboxamide] | < 50 nM | > 30000 nM
10 | Cc1cc(NC(=O)c2c(C)c(C(=O)C(=O)NOC(C)(C)CO)n(C)c2C)ccc1F [Example 156, N-(4-fluoro-3-methylphenyl)-5-(2-(((1-hydroxy-2-methylpropan-2-yl)oxy)amino)-2-oxoacetyl)-1,2,4-trimethyl-1H-pyrrole-3-carboxamide] | < 50 nM | > 30000 nM
11 | Cc1cc(NC(=O)c2c(C)c(C(=O)C(=O)NOCC(F)(F)F)n(C)c2C)ccc1F [Example 157, N-(4-fluoro-3-methylphenyl)-1,2,4-trimethyl-5-(2-oxo-2-((2,2,2-trifluoroethoxy)amino)acetyl)-1H-pyrrole-3-carboxamide] | 50 to 499 nM | > 30000 nM
12 | Cc1nc(C2(NC(=O)C(=O)c3c(C)c(C(=O)Nc4ccc(F)c(C)c4)c(C)n3C)CCCC2)no1 [Example 158, N-(4-fluoro-3-methylphenyl)-1,2,4-trimethyl-5-(2-((1-(5-methyl-1,2,4-oxadiazol-3-yl)cyclopentyl)amino)-2-oxoacetyl)-1H-pyrrole--3 carboxamide] | < 50 nM | > 30000 nM
13 | Cc1cc(NC(=O)c2c(C)c(C(=O)C(=O)NC3(c4noc(C(F)F)n4)CCC3)n(C)c2C)cnc1F [Example 159, 5-(2-((1-(5-(difluoromethyl)-1,2,4-oxadiazol-3-yl)cyclobutyl)amino)-2-oxoacetyl)-N-(6-fluoro-5-methylpyridin-3-yl)-1,2,4-trimethyl-1H-pyrrole-3-carboxamide] | < 50 nM | > 30000 nM
14 | Cc1noc(C2(NC(=O)C(=O)c3c(C)c(C(=O)Nc4cnc(F)c(C)c4)c(C)n3C)CC2)n1 [Example 160, N-(6-fluoro-5-methylpyridin-3-yl)-1,2,4-trimethyl-5-(2-((1-(3-methyl-1,2,4-oxadiazol-5-yl)cyclopropyl)amino)-2-oxoacetyl)-1H-pyrrole-3-carboxamide] | 50 to 499 nM | > 30000 nM
15 | Cc1cc(NC(=O)c2c(C)c(C(=O)C(=O)NC(C)(C)CO)n(C)c2C)cnc1F [Example 161, N-(6-fluoro-5-methylpyridin-3-yl)-5-(2-((1-hydroxy-2-methylpropan-2-yl)amino)-2-oxoacetyl)-1,2,4-trimethyl-1H-pyrrole-3-carboxamide] | < 50 nM | > 30000 nM
16 | Cc1cc(NC(=O)c2c(C)c(C(=O)C(=O)N[C@@H]3CCCC[C@H]3O)n(C)c2C)cnc1F [Example 162, N-(6-fluoro-5-methylpyridin-3-yl)-5-(2-(((1R,2R)-2-hydroxycyclohexyl)amino)-2-oxoacetyl)-1,2,4-trimethyl-1H-pyrrole-3-carboxamide] | 50 to 499 nM | > 30000 nM
17 | Cc1cc(NC(=O)c2c(C)c(C(=O)C(=O)NC3(C(F)(F)F)CCOCC3)n(C)c2C)cnc1F [Example 163, N-(6-fluoro-5-methylpyridin-3-yl)-1,2,4-trimethyl-5-(2-oxo-2-((4-(trifluoromethyl)tetrahydro-2H-pyran-4-yl)amino)acetyl)-1H-pyrrole-3-carboxamide] | > 1000 nM | > 30000 nM
18 | Cc1cc(NC(=O)c2c(C)c(C(=O)C(=O)N[C@@H]3CCOC[C@H]3O)n(C)c2C)cnc1F [Example 164, N-(6-fluoro-5-methylpyridin-3-yl)-5-(2-(((3S,4R)-3-hydroxytetrahydro-2H-pyran-4-yl)amino)-2-oxoacetyl)-1,2,4-trimethyl-1H-pyrrole-3-carboxamide] | 500 to 1000 nM | > 30000 nM
19 | Cc1cc(NC(=O)c2c(C)c(C(=O)C(=O)N[C@H](C)C(F)(F)F)n(C)c2C)cnc1F [Example 165, (R)-N-(6-fluoro-5-methylpyridin-3-yl)-1,2,4-trimethyl-5-(2-oxo-2-((1,1,1-trifluoropropan-2-yl)amino)acetyl)-1H-pyrrole-3-carboxamide] | < 50 nM | > 30000 nM
20 | Cc1c(C(=O)Nc2ccc(F)nc2)c(C)n(C)c1C(=O)C(=O)N[C@H](C)C(F)(F)F [Example 166, (R)-N-(6-fluoropyridin-3-yl)-1,2,4-trimethyl-5-(2-oxo-2-((1,1,1-trifluoropropan-2-yl)amino)acetyl)-1H-pyrrole-3-carboxamide] | < 50 nM | > 30000 nM
21 | COCC(C)(C)NC(=O)C(=O)c1c(C)c(C(=O)Nc2cnc(F)c(C)c2)c(C)n1C [Example 167, N-(6-fluoro-5-methylpyridin-3-yl)-5-(2-((1-methyoxy-2-methylpropan-2-yl)amino)-2-oxoacetyl)-1,2,4-trimethyl-1H-pyrrole-3-carboxamide] | < 50 nM | > 30000 nM
22 | COCC(C)(C)NC(=O)C(=O)c1c(C)c(C(=O)Nc2ccc(F)nc2)c(C)n1C [Example 168, N-(6-fluoropyridin-3-yl)-5-(2-((1-methoxy-2-methylpropan-2-yl)amino)-2-oxoacetyl)-1,2,4-trimethyl-1H-pyrrole-3-carboxamide] | 50 to 499 nM | > 30000 nM
23 | COCC(C)(C)NC(=O)C(=O)c1c(C)c(C(=O)Nc2ccc(F)c(C)c2)c(C)n1C [Example 169, N-(4-fluoro-3-methylphenyl)-5-(2-((1-methoxy-2-methylpropan-2-yl)amino)-2-oxoacetyl)-1,2,4-trimethyl-1H-pyrrole-3-carboxamide] | < 50 nM | > 30000 nM
24 | Cc1c(C(=O)Nc2ccnc(F)c2)c(C)n(C)c1C(=O)C(=O)N[C@H](C)C(F)(F)F [Example 170, (R)—N-(2-fluoropyridin-4-yl)-1,2,4-trimethyl-5-(2-oxo-2-((1,1,1-trifluoropropan-2-yl)amino)acetyl)-1H-pyrrole-3-carboxamide] | < 50 nM | > 30000 nM
25 | Cc1cc(NC(=O)c2c(C)c(C(=O)C(=O)NCc3cnc(N)s3)n(C)c2C)cnc1F [Example 171, 5-(2-(((2-aminothiazol-5-yl)methyl)maino)-2-oxoacetyl)-N-(6-fluoro-5-methylpyridin-3-yl)-1,2,4-trimethyl-1H-pyrrole-3-carboxamide] | < 50 nM | > 30000 nM
26 | Cc1c(C(=O)Nc2ccnc(F)c2)c(C)n(C)c1C(=O)C(=O)NC(C)(C)C(F)(F)F [Example 172, N-(2-fluoropyridin-4-yl)-1,2,4-trimethyl-5-(2-oxo-2-((1,1,1-trifluoro-2-methylpropan-2-yl)amino)acetyl)-1H-pyrrole-3-carboxamide] | < 50 nM | > 30000 nM
